Legend:
Type in all cases: in vivo
[1] = test system: umbrella sedge (Cyperus difformis); test: Test B flooded paddy test
In short: (§1)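 Flooded-pot test: water raised to 3 cm above soil when treating, compound put in the water, level unchanged thereafter. Plants were at 2 leaves. Readout after 13 to 15 days, visual, relative to controls; 0 signifies no effect and 100 complete control.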

[2] = test system: barnyardgrass (Echinochloa crus-galli); test: Test B flooded paddy test
In short: as §1

[3] = test system: ducksalad (Heteranthera limosa); test: Test B flooded paddy test
In short: as §1

rice (Oryza sativa) = test: Test B flooded paddy test
In short: as §1

[4] = test system: Italian ryegrass (Lolium multiflorum); test: Test B pre-/postemergence plant response; conditions: Postemergence
Description: (§2) Seeds of plant species selected from blackgrass (Alopecurus myosuroides), downy bromegrass (Bromus tectorum), green foxtail (Setaria viridis), Italian ryegrass (Lolium multiflorum), wheat (Triticum aestivum), wild oat (Avena fatua), deadnettle (henbit deadnettle, Lamium amplexicaule), galium (catchweed bedstraw, Galium aparine), bermudagrass (Cynodon dactylon), Surinam grass (Brachiaria decumbens), cocklebur (Xanthium strumarium), corn (Zea mays), large crabgrass (Digitaria sanguinalis), woolly cupgrass (Eriochloa villosa), giant foxtail (Setaria faberii), goosegrass (Eleusine indica), johnsongrass (Sorghum halepense), kochia (Kochia scoparia), lambsquarters (Chenopodium album), morningglory (Ipomoea coccinea), nightshade (eastern black nightshade, Solanum ptycanthum), yellow nutsedge (Cyperus esculentus), pigweed (Amaranthus retroflexus), ragweed (common ragweed, Ambrosia elatior), Russian thistle (Salsola kali), soybean (Glycine max), sunflower (common oilseed sunflower, Helianthus annuus) and velvetleaf (Abutilon theophrasti) were planted into a blend of loam soil and sand and treated preemergence with test compounds formulated in a non-phytotoxic solvent mixture which included a surfactant.
(§3) At the same time, plants selected from these crop and weed species and also winter barley (Hordeum vulgare), canarygrass (Phalaris minor), chickweed (Stellaria media) and windgrass (Apera spica-venti) were planted in pots containing Redi-Earth® planting medium (Scotts Company, 14111 Scottslawn Road, Marysville, Ohio 43041) comprising spaghnum peat moss, vermiculite, wetting agent and starter nutrients and treated with postemergence applications of some of the test chemicals formulated in the same manner. Plants ranged in height from 2 to 18 cm (1- to 4-leaf stage) for postemergence treatments.
(§4) Treated plants and controls were maintained in a greenhouse for 13 to 15 days, after which time all treated plants were visually evaluated and compared to controls. Plant response ratings, summarized in Table B, are based on a scale of 0 to 100 where 0 is no effect and 100 is complete control. A dash (-) response means no test result.

soybean (Glycine max) = test: Test B pre-/postemergence plant response; conditions: Postemergence
Description: as §2, §3, §4

[5] = test system: ragweed (common ragweed, Ambrosia elatior); test: Test B pre-/postemergence plant response; conditions: Postemergence
Description: as §2, §3, §4

[6] = test system: morningglory (Ipomoea coccinea); test: Test B pre-/postemergence plant response; conditions: Postemergence
Description: as §2, §3, §4

[7] = test system: bermudagrass (Cynodon dactylon); test: Test B pre-/postemergence plant response; conditions: Postemergence
Description: as §2, §3, §4

[8] = test system: Surinam grass (Brachiaria decumbens); test: Test B pre-/postemergence plant response; conditions: Postemergence
Description: as §2, §3, §4

[9] = test system: blackgrass (Alopecurus myosuroides); test: Test B pre-/postemergence plant response; conditions: Postemergence
Description: as §2, §3, §4

corn (Zea mays) = test: Test B pre-/postemergence plant response; conditions: Postemergence
Description: as §2, §3, §4

[10] = 250 g ai/ha, flooded paddy test, visual rating on 0 to 100 scale (0 no effect, 100 complete control) after 13 to 15 days
[11] = Flood (flooded paddy test), 62 g ai/ha, scale 0 to 100, 0 is no effect, 100 is complete control, 13 to 15 days
[12] = Flood (flooded paddy test), 62 g ai/ha, scale of 0 to 100 where 0 is no effect and 100 is complete control, 13 to 15 days
[13] = Flood (flooded paddy test), 125 g ai/ha, scale 0 to 100, 0 is no effect, 100 is complete control, 13 to 15 days
[14] = Flood, 31 g ai/ha, scale 0 to 100 (0 no effect, 100 complete control)
[15] = 31 g ai/ha, 0 to 100 scale (0 no effect, 100 complete control)
[16] = 62 g ai/ha, scale 0 to 100 (0 no effect, 100 complete control)
[17] = 250 g ai/ha, scale 0 to 100 (0 no effect, 100 complete control), 13 to 15 days
[18] = 125 g ai/ha, scale 0 to 100 (0 no effect, 100 complete control)

## O=C1CCCC(O)=C1C(=O)c1cnc(-c2ccccc2)n(Cc2ccccc2)c1=O [Compound 17, 5-[(2-hydroxy-6-oxo-1-cyclohexen-1-yl)carbonyl]-2-phenyl-3-(phenylmethyl)-4(3H)-pyrimidinone]
[1]; Cyperus difformis, 360 h, 250 g ai/ha, flooded paddy test, visual rating on 0 to 100 scale (0 no effect, 100 complete control) after 13 to 15 days, read-out: Plant response rating, Flood, Sedge, Umbrella
  pest or weed control at 250 g/ha: 80%
[1]; Cyperus difformis, 360 h, Flood (flooded paddy test), 31 g ai/ha, scale of 0 to 100 where 0 is no effect and 100 is complete control, 13 to 15 days, read-out: Plant response rating, Sedge, Umbrella
  pest or weed control at 31 g/ha: 0%
[1]; Cyperus difformis, 360 h, Flood (flooded paddy test), 62 g ai/ha, scale 0 to 100, 0 is no effect, 100 is complete control, 13 to 15 days, read-out: Plant response rating, Sedge, Umbrella
  pest or weed control at 62 g/ha: 70%
[1]; Cyperus difformis, 360 h, Flood (flooded paddy test), 125 g ai/ha, scale 0 to 100, 0 is no effect, 100 is complete control, 13 to 15 days, read-out: Plant response rating, Sedge, Umbrella
  pest or weed control at 125 g/ha: 70%
[2]; Echinochloa crus-galli, 360 h, 250 g ai/ha, flooded paddy test, visual rating on 0 to 100 scale (0 no effect, 100 complete control) after 13 to 15 days, read-out: Plant response rating, Flood, Barnyardgrass
  pest or weed control at 250 g/ha: 25%
[2]; Echinochloa crus-galli, 360 h, Flood (flooded paddy test), 31 g ai/ha, scale of 0 to 100 where 0 is no effect and 100 is complete control, 13 to 15 days, read-out: Plant response rating, Barnyardgrass
  pest or weed control at 31 g/ha: 0%
[2]; Echinochloa crus-galli, 360 h, Flood (flooded paddy test), 62 g ai/ha, scale 0 to 100, 0 is no effect, 100 is complete control, 13 to 15 days, read-out: Plant response rating, Barnyardgrass
  pest or weed control at 62 g/ha: 20%
[2]; Echinochloa crus-galli, 360 h, Flood (flooded paddy test), 125 g ai/ha, scale 0 to 100, 0 is no effect, 100 is complete control, 13 to 15 days, read-out: Plant response rating, Barnyardgrass
  pest or weed control at 125 g/ha: 25%
[3]; Heteranthera limosa, 360 h, 250 g ai/ha, flooded paddy test, visual rating on 0 to 100 scale (0 no effect, 100 complete control) after 13 to 15 days, read-out: Plant response rating, Flood, Ducksalad
  pest or weed control at 250 g/ha: 45%
[3]; Heteranthera limosa, 360 h, Flood (flooded paddy test), 31 g ai/ha, scale of 0 to 100 where 0 is no effect and 100 is complete control, 13 to 15 days, read-out: Plant response rating, Ducksalad
  pest or weed control at 31 g/ha: 0%
[3]; Heteranthera limosa, 360 h, Flood (flooded paddy test), 62 g ai/ha, scale 0 to 100, 0 is no effect, 100 is complete control, 13 to 15 days, read-out: Plant response rating, Ducksalad
  pest or weed control at 62 g/ha: 30%
[3]; Heteranthera limosa, 360 h, Flood (flooded paddy test), 125 g ai/ha, scale 0 to 100, 0 is no effect, 100 is complete control, 13 to 15 days, read-out: Plant response rating, Ducksalad
  pest or weed control at 125 g/ha: 30%
Rice (Oryza sativa); Oryza sativa, 250 g ai/ha, flooded paddy test, visual rating on 0 to 100 scale (0 no effect, 100 complete control) after 13 to 15 days, read-out: Plant response rating, Flood, Rice
  plant injury at 250 g/ha: 15%
Rice (Oryza sativa); Oryza sativa, Flood (flooded paddy test), 31 g ai/ha, scale of 0 to 100 where 0 is no effect and 100 is complete control, 13 to 15 days, read-out: Plant response rating, Rice
  plant injury at 31 g/ha: 0%
Rice (Oryza sativa); Oryza sativa, Flood (flooded paddy test), 62 g ai/ha, scale 0 to 100, 0 is no effect, 100 is complete control, 13 to 15 days, read-out: Plant response rating, Rice
  plant injury at 62 g/ha: 0%
Rice (Oryza sativa); Oryza sativa, Flood (flooded paddy test), 125 g ai/ha, scale 0 to 100, 0 is no effect, 100 is complete control, 13 to 15 days, read-out: Plant response rating, Rice
  plant injury at 125 g/ha: 0%

## Cc1ccc(-n2c(-c3ccccc3)ncc(C(=O)C3=C(O)CCCC3=O)c2=O)c(C)c1 [Compound 28]
[1]; [10]
  Plant response rating, Flood, Sedge, Umbrella: 80
[1]; [11]
  Plant response rating, Sedge, Umbrella: 70
[2]; [10]
  Plant response rating, Flood, Barnyardgrass: 20
[2]; [11]
  Plant response rating, Barnyardgrass: 10
[3]; [10]
  Plant response rating, Flood, Ducksalad: 85
[3]; [11]
  Plant response rating, Ducksalad: 70
Rice (Oryza sativa); [10]
  Plant response rating, Flood, Rice: 0
Rice (Oryza sativa); [11]
  Plant response rating, Rice: 0

## COCCn1c(-c2cccc(F)c2)ncc(C(=O)C2=C(O)C3CCC(C3)C2=O)c1=O (stereo not shown) [Compound 235]
[1]; [10]
  Plant response rating, Flood, Sedge, Umbrella: 80
[1]; [12]
  Plant response rating, Sedge, Umbrella: 70
[1]; [13]
  Plant response rating, Sedge, Umbrella: 80
[1]; [14]
  Sedge, Umbrella plant response rating: 0
[2]; [10]
  Plant response rating, Flood, Barnyardgrass: 75
[2]; [12]
  Plant response rating, Barnyardgrass: 20
[2]; [13]
  Plant response rating, Barnyardgrass: 50
[2]; [14]
  Barnyardgrass plant response rating: 0
[3]; [10]
  Plant response rating, Flood, Ducksalad: 100
[3]; [12]
  Plant response rating, Ducksalad: 95
[3]; [13]
  Plant response rating, Ducksalad: 100
[3]; [14]
  Ducksalad plant response rating: 95
Rice (Oryza sativa); [10]
  Plant response rating, Flood, Rice: 55
Rice (Oryza sativa); [12]
  Plant response rating, Rice: 0
Rice (Oryza sativa); [13]
  Plant response rating, Rice: 45
Rice (Oryza sativa); [14]
  Rice plant response rating: 0
[4]; [15]
  Plant response rating, Ryegrass, Italian: 30
[4]; [16]
  Plant response rating, Ryegrass, Italian: 30
[4]; [17]
  Plant response rating, Ryegrass, Italian: 60
Soybean (Glycine max); [15]
  Plant response rating, Soybean: 98
Soybean (Glycine max); [16]
  Plant response rating, Soybean: 100
Soybean (Glycine max); [17]
  Plant response rating, Soybean: 100
[5]; [15]
  Plant response rating, Ragweed: 98
[5]; [16]
  Plant response rating, Ragweed: 100
[5]; [17]
  Plant response rating, Ragweed: 100
[6]; [15]
  Plant response rating, Morningglory: 95
[6]; [16]
  Plant response rating, Morningglory: 98
[6]; [18]
  Plant response rating, Morningglory: 100
[6]; [17]
  Plant response rating, Morningglory: 100
[7]; [15]
  Plant response rating, Bermudagrass: 98
[7]; [16]
  Plant response rating, Bermudagrass: 98
[7]; [18]
  Plant response rating, Bermudagrass: 100
[7]; [17]
  Plant response rating, Bermudagrass: 100
[8]; [15]
  Plant response rating, Surinam Grass: 80
[8]; [16]
  Plant response rating, Surinam Grass: 90
[8]; [17]
  Plant response rating, Surinam Grass: 100
[9]; [15]
  Plant response rating, Blackgrass: 45
[9]; [16]
  Plant response rating, Blackgrass: 60
[9]; [18]
  Plant response rating, Blackgrass: 70
Corn (Zea mays); [15]
  Plant response rating, Corn: 95
Corn (Zea mays); [16]
  Plant response rating, Corn: 100
Corn (Zea mays); [18]
  Plant response rating, Corn: 100
Corn (Zea mays); [17]
  Plant response rating, Corn: 100
